What is called EC50 is the midpoint of the concentration-response curve.

One experiment has as its system ring stage parasites. Put plainly: Parasite growth potency assay, 72 hours, LDH readout. Type of experiment: cell-based. To be noted: 72 h, parasite growth measured by LDH assay after 72 hours at 37° C.; 0.7% rings, 2% haematocrit; read-out: EC50. The method, boiled down: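 Parasite growth was quantified by LDH assay after a −80 °C freeze-thaw. Before that, compound was incubated for 72 h at 37 °C under humidified gas with ring-stage cultures adjusted to 0.7% parasitemia and 2% haematocrit in serum- and albumax-supplemented RPMI-Hepes.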
For the compound `CCC[C@H](c1cccc(C(=O)N[C@H]2CCOc3ccccc32)c1)N1C(=N)N[C@](CC)(c2ccccc2)CC1=O` [Example 70, [(4S)-1-[(1R)-1-[3-[[(4S)-chroman-4-yl]carbamoyl]phenyl]butyl]-4-ethyl-6-oxo-4-phenyl-hexahydropyrimidin-2-ylidene]ammonium; 2,2,2-trifluoroacetate], the EC50 worked out at 76 nM.
On the same count and under the same terms, as for `CCC[C@H](c1cccc(C(=O)N[C@@H]2c3ccccc3C[C@H]2O)c1)N1C(=N)N[C@](CC)(c2ccccc2)CC1=O` [Example 71, [(4S)-4-ethyl-1-[(1R)-1-[3-[[(1R,2R)-2-hydroxyindan-1-yl]carbamoyl]phenyl]butyl]-6-oxo-4-phenyl-hexahydropyrimidin-2-ylidene]ammonium; 2,2,2-trifluoroacetate], the figure is 9.3 nM; as for `CCC1(CC)CC(=O)N([C@H](CCC#N)c2cccc(C(=O)N[C@H]3CCOc4ccccc43)c2)C(=N)N1` [Example 73A, [1-[1-[3-[[(4S)-chroman-4-yl]carbamoyl]phenyl]-3-cyano-propyl]-4,4-diethyl-6-oxo-hexahydropyrimidin-2-ylidene]ammonium; 2,2,2-trifluoroacetate], 0.7 nM.
Regarding `CC#CCC[C@H](c1cccc(C(=O)N[C@H]2CCOc3ccccc32)c1)N1C(=N)NC(CC)(CC)CC1=O` [Example 74, [1-[1-[3-[[(4S)-chroman-4-yl]carbamoyl]phenyl]hex-4-ynyl]-4,4-diethyl-6-oxo-hexahydropyrimidin-2-ylidene]ammonium; 2,2,2-trifluoroacetate], the EC50 amounted to 0.9 nM.
On the same count and under the same terms, the value for `CC(C)[C@]1(C)CC(=O)N(Cc2cccc(C(=O)N[C@H]3CCc4ccccc43)c2)C(=N)N1` [Example 75, [(4S)-1-[[3-[[(1S)-indan-1-yl]carbamoyl]phenyl]methyl]-4-isopropyl-4-methyl-6-oxo-hexahydropyrimidin-2-ylidene]ammonium; 2,2,2-trifluoroacetate] was 66.5 nM; that for `CCC[C@H](c1cccc(C(=O)N[C@H]2CCc3ccccc32)c1)N1C(=N)NC(CC)(CC)CC1=O` [Example 76, [4,4-diethyl-1-[1-[3-[[(1S)-indan-1-yl]carbamoyl]phenyl]butyl]-6-oxo-hexahydropyrimidin-2-ylidene]ammonium; 2,2,2-trifluoroacetate] was 0.9 nM; that for `CCC1(CC)CC(=O)N(Cc2cccc(C(=O)N[C@H]3CCc4ccccc43)c2)C(=N)N1` [Example 77, [4,4-diethyl-1-[[3-[[(1S)-indan-1-yl]carbamoyl]phenyl]methyl]-6-oxo-hexahydropyrimidin-2-ylidene]ammonium; 2,2,2-trifluoroacetate] was 14.7 nM.
Consider `C=C=C(C)[C@H](c1cccc(C(=O)N[C@H]2CCOc3ccccc32)c1)N1C(=N)NC(CC)(CC)CC1=O` [Example 78, [1-[1-[3-[[(4S)-chroman-4-yl]carbamoyl]phenyl]-2-methyl-buta-2,3-dienyl]-4,4-diethyl-6-oxo-hexahydropyrimidin-2-ylidene]ammonium; 2,2,2-trifluoroacetate], for which the EC50 came out at 3.1 nM.
The same measure, in the same setting: the value for `CC(C)[C@]1(C)CC(=O)N(Cc2cccc(C(=O)NC3CC(C)(C)Oc4ccccc43)c2)C(=N)N1` (stereo partly drawn) [Example 79, [(4S)-1-[[3-[(2,2-dimethylchroman-4-yl)carbamoyl]phenyl]methyl]-4-isopropyl-4-methyl-6-oxo-hexahydropyrimidin-2-ylidene]ammonium; 2,2,2-trifluoroacetate] was 2.1 nM; that for `CCC1(CC)CC(=O)N(Cc2cc(C(=O)NC3CC(C)(C)Oc4ccccc43)ccn2)C(=N)N1` (stereo not shown) [Example 80, [1-[[4-[(2,2-dimethylchroman-4-yl)carbamoyl]pyridin-1-ium-2-yl]methyl]-4,4-diethyl-6-oxo-hexahydropyrimidin-2-ylidene]ammonium; 2,2,2-trifluoroacetate] was 1.7 nM; that for `CC#CCCC(c1cccc(C(=O)NC2CC(C)(C)Oc3ccccc32)c1)N1C(=N)NC(CC)(CC)CC1=O` (stereo not shown) [Example 83A, [1-[1-[3-[(2,2-dimethylchroman-4-yl)carbamoyl]phenyl]hex-4-ynyl]-4,4-diethyl-6-oxo-hexahydropyrimidin-2-ylidene]ammonium; 2,2,2-trifluoroacetate] was 62.9 nM.
Consider `CCC1(CC)CC(=O)N(Cc2cc(C#N)cc(C(=O)N[C@H]3CCOc4ccccc43)c2)C(=N)N1` [Example 84, [1-[[3-[[(4S)-chroman-4-yl]carbamoyl]-5-cyano-phenyl]methyl]-4,4-diethyl-6-oxo-hexahydropyrimidin-2-ylidene]ammonium; 2,2,2-trifluoroacetate], for which the EC50 is 8.3 nM.
As to `CCC1(CC)CC(=O)N([C@@H](c2cccc(C(=O)N[C@H]3CCOc4ccccc43)c2)c2cncs2)C(=N)N1` [Example 85A, N-[(4S)-chroman-4-yl]-3-[(4,4-diethyl-2-imino-6-oxo-hexahydropyrimidin-1-yl)-thiazol-5-yl-methyl]benzamide], the EC50 worked out at 1 nM.
In the case of `CCC1(COC)CC(=O)N(Cc2cccc(C(=O)N[C@H]3CCOc4ccccc43)c2)C(=N)N1` (stereo partly drawn) [Example 86, [1-[[3-[[(4S)-chroman-4-yl]carbamoyl]phenyl]methyl]-4-ethyl-4-(methoxymethyl)-6-oxo-hexahydropyrimidin-2-ylidene]ammonium; 2,2,2-trifluoroacetate], the EC50 was 49.6 nM.
For `CCC1(COC)CC(=O)N(Cc2cccc(C(=O)N[C@@H]3c4ccccc4C[C@H]3O)c2)C(=N)N1` (stereo partly drawn) [Example 95, [4-ethyl-1-[[3-[[(1R,2R)-2-hydroxyindan-1-yl]carbamoyl]phenyl]methyl]-4-(methoxymethyl)-6-oxo-hexahydropyrimidin-2-ylidene]ammonium; 2,2,2-trifluoroacetate], the EC50 was 43.2 nM.
Consider `CCC1(CC)CC(=O)N([C@@H](c2cccc(C(=O)N[C@H]3CC(C)(C)Oc4ccccc43)c2)C(C)c2cccnc2)C(=N)N1` (stereo partly drawn) [Example 96, [1-[1-[3-[[(4S)-2,2-dimethylchroman-4-yl]carbamoyl]phenyl]-2-pyridin-1-ium-3-yl-propyl]-4,4-diethyl-6-oxo-hexahydropyrimidin-2-ylidenelammonium; 2,2,2-trifluoroacetate], for which the EC50 was determined as 19.9 nM.
Regarding `CCC1(COC)CC(=O)N(Cc2cccc(C(=O)N[C@H]3CC(C)(C)Oc4ccccc43)c2)C(=N)N1` (stereo partly drawn) [Example 98A, [1-[[3-[[(4S)-2,2-dimethylchroman-4-yl]carbamoyl]phenyl]methyl]-4-ethyl-4-(methoxymethyl)-6-oxo-hexahydropyrimidin-2-ylidene]ammonium; 2,2,2-trifluoroacetate], the EC50 turned out to be 15.5 nM.
As to `CCC1(CC)CC(=O)N([C@H](c2cncc(F)c2)c2cccc(C(=O)N[C@H]3CC(C)(C)Oc4ccccc43)c2)C(=N)N1` [Example 99A, [1-[[3-[[(4S)-2,2-dimethylchroman-4-yl]carbamoyl]phenyl]-(5-fluoropyridin-1-ium-3-yl)methyl]-4,4-diethyl-6-oxo-hexahydropyrimidin-2-ylidene]ammonium; 2,2,2-trifluoroacetate], the EC50 was 0.6 nM.
Same read-out and setting: the value for `CCC1(CC)CC(=O)N([C@@H](c2cncc(F)c2)c2cccc(C(=O)N[C@H]3CC(C)(C)Oc4ccccc43)c2)C(=N)N1` [Example 99B, [1-[[3-[[(4S)-2,2-dimethylchroman-4-yl]carbamoyl]phenyl]-(5-fluoropyridin-1-ium-3-yl)methyl]-4,4-diethyl-6-oxo-hexahydropyrimidin-2-ylidene]ammonium; 2,2,2-trifluoroacetate] was 2 nM.
On the same count and under the same terms, the value for `CCC1(CC)CC(=O)N([C@H](c2cccnc2)c2cccc(C(=O)N[C@H]3CC(C)(C)Oc4ccccc43)c2)C(=N)N1` [Example 100A, [1-[[3-[[(4S)-2,2-dimethylchroman-4-yl]carbamoyl]phenyl]-pyridin-1-ium-3-yl-methyl]-4,4-diethyl-6-oxo-hexahydropyrimidin-2-ylidene]ammonium; 2,2,2-trifluoroacetate] was 0.4 nM; that for `CCC1(CC)CC(=O)N([C@@H](c2cccnc2)c2cccc(C(=O)N[C@H]3CC(C)(C)Oc4ccccc43)c2)C(=N)N1` [Example 100B, [1-[[3-[[(4S)-2,2-dimethylchroman-4-yl]carbamoyl]phenyl]-pyridin-1-ium-3-yl-methyl]-4,4-diethyl-6-oxo-hexahydropyrimidin-2-ylidene]ammonium; 2,2,2-trifluoroacetate] was 4.8 nM.

Still in this experiment, the particulars now being: parasite growth measured by LDH assay after 72 hours at 37° C.; 0.7% rings, 2% haematocrit; trifluoroacetate; read-out: EC50.
Take `CCC1(CC)CC(=O)N(Cc2cncc(C(=O)NC3CC(C)(C)Oc4ccccc43)c2)C(=N)N1` (stereo not shown) [Example 81, [1-[[5-[(2,2-dimethylchroman-4-yl)carbamoyl]pyridin-1-ium-3-yl]methyl]-4,4-diethyl-6-oxo-hexahydropyrimidin-2-ylidene]ammonium; 2,2,2-trifluoroacetate]: the EC50 turned out to be 1.3 nM.
On to `CCC1(CC)CC(=O)N(Cc2cncc(C(=O)NC3CC(C)(C)Oc4ccccc43)c2)C(=N)N1` (stereo not shown) [Example 82, [1-[[5-[(2,2-dimethylchroman-4-yl)carbamoyl]pyridin-1-ium-3-yl]methyl]-4,4-diethyl-6-oxo-hexahydropyrimidin-2-ylidene]ammonium; 2,2,2-trifluoroacetate], for which the EC50 amounted to 39.4 nM.
With `CC#CCCC(c1cccc(C(=O)NC2CC(C)(C)Oc3ccccc32)c1)N1C(=N)NC(CC)(CC)CC1=O` (stereo not shown) [Example 83C, [1-[1-[3-[(2,2-dimethylchroman-4-yl)carbamoyl]phenyl]hex-4-ynyl]-4,4-diethyl-6-oxo-hexahydropyrimidin-2-ylidene]ammonium; 2,2,2-trifluoroacetate], the EC50 came to 50.2 nM.
For `CCC1(COC)CC(=O)N(Cc2cccc(C(=O)N[C@H]3CC(C)(C)Oc4ccccc43)c2)C(=N)N1` (stereo partly drawn) [Example 98B, [1-[[3-[[(4S)-2,2-dimethylchroman-4-yl]carbamoyl]phenyl]methyl]-4-ethyl-4-(methoxymethyl)-6-oxo-hexahydropyrimidin-2-ylidene]ammonium; 2,2,2-trifluoroacetate], the EC50 is 8.1 nM.

The values above are taken from patent publication US12629374B2, “Antimalarial agents” (Merck Sharp & Dohme LLC, priority 2020, dated 2026).
